Where a name gives a salt, the structure may show the parent alone.
With COc1cc2nc(N3CCN(C(=O)c4cocn4)CC3)nc(N)c2cc1OC.Cl the melting point was 291 to 294 °C (dec.). With COc1cc2nc(N3CCN(C(=O)c4coc(C)n4)CC3)nc(N)c2cc1OC.Cl the melting point was 278 to 280 °C (dec.). With COc1cc2nc(N3CCN(C(=O)c4ocnc4C)CC3)nc(N)c2cc1OC.Cl the melting point was 283.5 to 288 °C (dec.). For COc1cc2nc(N3CCN(C(=O)c4cnsc4)CC3)nc(N)c2cc1OC.Cl, the melting point was 286 to 287 °C (dec.). With COc1cc2nc(N3CCN(C(=O)c4nccs4)CC3)nc(N)c2cc1OC.Cl the melting point was 273 to 276 °C (dec.). For COc1cc2nc(N3CCN(C(=O)c4cscn4)CC3)nc(N)c2cc1OC.Cl, the melting point was 274 to 277 °C (dec.). With COc1cc2nc(N3CCN(C(=O)c4csc(C)n4)CC3)nc(N)c2cc1OC.Cl the melting point was 260 to 263 °C (dec.). With COc1cc2nc(N3CCN(C(=O)c4cncs4)CC3)nc(N)c2cc1OC.Cl the melting point was 280 to 281 °C (dec.). Work on COc1cc2nc(N3CCN(C(=O)C4CCCC4)CC3)nc(NN)c2cc1OC.Cl yielded a melting point of 282 to 284 °C. For COc1cc2nc(N3CCN(C(=O)c4csnn4)CC3)nc(N)c2cc1OC.Cl, the melting point was 270 °C (dec.). For COc1cc2nc(N3CCN(C(=O)c4cnns4)CC3)nc(N)c2cc1OC.Cl, the melting point was 295 to 297 °C. For COc1cc2nc(N3CCN(C(=O)c4ccon4)CC3)nc(N)c2cc1OC.Cl, the melting point was 268 to 273 °C (dec.). For COc1cc2nc(N3CCN(C(=O)c4cnoc4)CC3)nc(N)c2cc1OC.Cl, the melting point was 225 to 260 °C (dec.). In the case of COc1cc2nc(N3CCN(C(=O)c4cc(C)on4)CC3)nc(N)c2cc1OC.Cl, the melting point is reported as 271 to 273 °C (dec.). With COc1cc2nc(N3CCN(C(=O)c4conc4C)CC3)nc(N)c2cc1OC.Cl the melting point was 300 to 301 °C (dec.). For COc1cc2nc(N3CCN(C(=O)c4cc(C)no4)CC3)nc(N)c2cc1OC.Cl, the melting point was 263 to 264 °C (dec.). For COc1cc2nc(N3CCN(C(=O)C4CCCC4)CC3)nc(N)c2cc1OC (as salt: hydrochloride) [Example 127, 4-Amino-2-[4-(cyclopentylcarbonyl)-1-piperazinyl]-6,7-dimethoxyquinazoline], the melting point was 279 to 280 °C (dec.). With COc1cc2nc(N3CCN(C(=O)C4CC=CCC4)CC3)nc(N)c2cc1OC (stereo not drawn) [Example 132, 4-Amino-2-[4-(3-cyclohexenylcarbonyl)-1-piperazinyl]-6,7-dimethoxyquinazoline] the melting point was 234 to 236 °C.

Reference: patent US20010031760A1, “Method of treating a patient having precancerous lesions with quinazoline derivatives” (priority 1995, published 2001)
